# System: A375 cells
# Experiment: A375 Cell Viability Assay (CTGlo), Example 16
# Type: cell-based, human
# Conditions: 72 h, 10-point dose series, in words (FIG. 83)
# Procedure: The effect of compounds of the invention on cell viability was assessed based on the quantification of ATP using the CellTiter-Glo® 2.0 (referred to here as CTGlo) Cell Viability Assay (Catalog No. G9243, Promega, Madison, WI, USA), which signals the presence of metabolically active cells.
# A375 cells were obtained from ATCC (Catalog No. CRL-1619, Manassas, VA, USA) (also referred to here as A375.1) and were maintained in DMEM, (Corning, Catalog No. 10-017-CV, Glendale, AZ, USA) supplemented with 10% fetal bovine serum (FBS; Catalog No. 16000044, Gibco, Grand Island, NY, USA) at 37° C. in an atmosphere of 5% CO2 in air. The cells were routinely sub-cultured to maintain cell density between 3×10^5-1.5×10^6 cells/mL. […] An aliquot of cell suspension was diluted 2× with a 0.4% Trypan Blue solution (Catalog No. 15250061, ThermoFisher Scientific, Waltham, MA, USA) and cell count was determined. […]
# Test compounds were prepared by dissolving neat compounds in dimethyl sulfoxide (DMSO; Catalog No. D8418, Sigma-Aldrich, Inc., St. Louis, MO, USA) to generate 10 mM stock solution and stored at −20° C. […] CellTiter-Glo® reagent was then added to the cells and luminescence signals were measured after 4 hours using an EnVision™ Multimode plate reader (Perkin Elmer, Santa Clara, CA). […]
smiles,measurement,value
"CCN(C)S(=O)(=O)Nc1ccc(F)c(Oc2ccc3ncn([C@H]4COC5(CCN(C6CC7(C6)CN(c6cc8c(cc6F)c(N6CCC(=O)NC6=O)nn8C)C7)CC5)C4)c(=O)c3c2)c1C#N [Compound 26, (3R)-3-[6-[2-cyano-3-[[ethyl(methyl)sulfamoyl]amino]-6-fluoro-phenoxy]-4-oxo-quinazolin-3-yl]-8-[2-[3-(2,4-dioxohexahydropyrimidin-1-yl)-5-fluoro-1-methyl-indazol-6-yl]-2-azaspiro[3.3]heptan-6-yl]-1-oxa-8-azaspiro[4.5]decane]",impact on viability of A375 cells,significant impact on the viability of A375 cells
"CCN(C)S(=O)(=O)Nc1ccc(F)c(Oc2ccc3ncn(C4CC5(CCN(C6CC7(C6)CN(c6cc8c(cc6F)c(N6CCC(=O)NC6=O)nn8C)C7)CC5)C4)c(=O)c3c2)c1C#N (centres unmarked) [Compound 141, 6-[2-cyano-3-[[ethyl(methyl)sulfamoyl]amino]-6-fluoro-phenoxy]-3-[7-[2-[3-(2,4-dioxohexahydropyrimidin-1-yl)-5-fluoro-1-methyl-indazol-6-yl]-2-azaspiro[3.3]heptan-6-yl]-7-azaspiro[3.5]nonan-2-yl]-4-oxo-quinazoline]",impact on viability of A375 cells,significant impact on the viability of A375 cells
